19 compounds from PubChem BioAssay AID290 (DTP/NCI, 2004) can be followed below.

SMILES strings stand for the structures. Values joined by “and” are separate entries in the source; they are usually repeats but may differ in a detail not shown here. Equal values may be shown once. Results filed as inconclusive are left out.

This experiment has as its system mice, P1798 lymphosarcoma sc, survival or tumor weight T/C. Nature of the experiment: NCI In Vivo Anticancer Drug Screen. Data for tumor model P1798 Lymphosarcoma (subcutaneous) in unknown mice. On the procedure:
The antitumor activity of compounds was measured in mice bearing transplantable tumors. Survival or tumor size were measured and the results are expressed as the measurement made in the treated group (T) divided by the measurement made in the vehicle treated control group (C). The tumor model used in this assay is P1798 Lymphosarcoma (subcutaneous) in unknown mice

The mark [1] stands for this setting: endpoint: mean tumor weight, dose: 2.0 mg/kg/injection, schedule: Q01DX010 (ip), vehicle: saline, higher = larger tumour.
The mark [2] stands for this setting: endpoint: mean tumor weight, dose: 4.0 mg/kg/injection, schedule: Q01DX010 (ip), vehicle: saline, higher = larger tumour.
The mark [3] stands for this setting: endpoint: mean tumor weight, dose: 250.0 mg/kg/injection, schedule: Q01DX010 (ip), vehicle: saline, higher = larger tumour.
Where [4] appears, read: endpoint: mean tumor weight, dose: 62.5 mg/kg/injection, schedule: Q01DX010 (ip), vehicle: carboxymethylcellulose (CMC), higher = larger tumour.
Setting [5] is: endpoint: mean tumor weight, dose: 125.0 mg/kg/injection, schedule: Q01DX010 (ip), vehicle: carboxymethylcellulose (CMC), higher = larger tumour.
The mark [6] stands for this setting: endpoint: mean tumor weight, dose: 250.0 mg/kg/injection, schedule: Q01DX010 (ip), vehicle: carboxymethylcellulose (CMC), higher = larger tumour.
Setting [7] is: endpoint: mean tumor weight, dose: 5.0 mg/kg/injection, schedule: Q01DX010 (ip), vehicle: saline, higher = larger tumour.
The mark [8] stands for this setting: endpoint: mean tumor weight, dose: 12.5 mg/kg/injection, schedule: Q01DX010 (ip), vehicle: saline, higher = larger tumour.
Where [9] appears, read: endpoint: mean tumor weight, dose: 62.5 mg/kg/injection, schedule: Q01DX010 (sc), vehicle: steriod suspending solution, higher = larger tumour.

Regarding `Nc1nc(=S)c2ncn(C3OC(CO)C(O)C3O)c2[nH]1` (centres undefined), the T/C by setting is: (endpoint: mean tumor weight, dose: 0.31 mg/kg/injection, schedule: Q01DX010 (ip), vehicle: carboxymethylcellulose (CMC), higher = larger tumour) 79 % of control; (endpoint: mean tumor weight, dose: 0.63 mg/kg/injection, schedule: Q01DX010 (ip), vehicle: carboxymethylcellulose (CMC), higher = larger tumour) 71 % of control; (endpoint: mean tumor weight, dose: 1.25 mg/kg/injection, schedule: Q01DX010 (ip), vehicle: carboxymethylcellulose (CMC), higher = larger tumour) 50 % of control; under setting [1], 55 % of control; (endpoint: mean tumor weight, dose: 2.5 mg/kg/injection, schedule: Q01DX010 (ip), vehicle: carboxymethylcellulose (CMC), higher = larger tumour) 31 % of control; under setting [2], 63 % of control.

As to `O=c1cn[nH]c(=O)[nH]1`, under “endpoint: mean tumor weight, dose: 375.0 mg/kg/injection, schedule: Q01DX010 (ip), vehicle: carboxymethylcellulose (CMC), higher = larger tumour”, the T/C was 90 % of control.

Regarding `C[C@H](N)C(=O)N[C@@H]1[C@H]2C(=C(O)C[C@@H](O)[C@@H]2O)C(=O)O[C@@H]1C`, the T/C is 61 % of control (endpoint: mean tumor weight, dose: 125.0 mg/kg/injection, schedule: Q01DX010 (ip), vehicle: saline, higher = larger tumour); 84 % of control under setting [3]; 64 % of control (endpoint: mean tumor weight, dose: 500.0 mg/kg/injection, schedule: Q01DX010 (ip), vehicle: saline, higher = larger tumour).

Regarding `Clc1ncnc2nc[nH]c12`, the T/C (endpoint: mean tumor weight, dose: 31.25 mg/kg/injection, schedule: Q01DX010 (ip), vehicle: carboxymethylcellulose (CMC), higher = larger tumour) was 106 % of control; the T/C under setting [4] was 95 % of control; the T/C under setting [5] is 92 % of control; the T/C under setting [6] is 79 % of control.

`O=C1CCC(N2C(=O)c3ccccc3C2=O)C(=O)N1` (centres undefined): the T/C (endpoint: mean tumor weight, dose: 18.75 mg/kg/injection, schedule: Q01DX010 (ip), vehicle: carboxymethylcellulose (CMC), higher = larger tumour) is 122 % of control; the T/C (endpoint: mean tumor weight, dose: 37.5 mg/kg/injection, schedule: Q01DX010 (ip), vehicle: carboxymethylcellulose (CMC), higher = larger tumour) was 68 % of control; the T/C (endpoint: mean tumor weight, dose: 75.0 mg/kg/injection, schedule: Q01DX010 (ip), vehicle: carboxymethylcellulose (CMC), higher = larger tumour) is 92 % of control; the T/C (endpoint: mean tumor weight, dose: 150.0 mg/kg/injection, schedule: Q01DX010 (ip), vehicle: carboxymethylcellulose (CMC), higher = larger tumour) was 83 % of control.

Turning to `CN(C)CC(=O)c1ccc(O)c(O)c1`, the T/C under setting [3] was 154 % of control.

Take `OCC1OC(n2cnc3c(Cl)ncnc32)C(O)C1O` (centres undefined): the T/C by setting is: under setting [4], 104 % of control; under setting [5], 107 % of control; under setting [6], 92 % of control; (endpoint: mean tumor weight, dose: 500.0 mg/kg/injection, schedule: Q01DX010 (ip), vehicle: carboxymethylcellulose (CMC), higher = larger tumour) 91 % of control and 95 % of control; (endpoint: mean tumor weight, dose: 1000.0 mg/kg/injection, schedule: Q01DX010 (ip), vehicle: carboxymethylcellulose (CMC), higher = larger tumour) 79 % of control.

As for `O=c1[nH]cc(F)c(=O)[nH]1`, the T/C reads like this: under setting [1], 119 % of control; (endpoint: mean tumor weight, dose: 2.5 mg/kg/injection, schedule: Q01DX015 (ip), vehicle: carboxymethylcellulose (CMC), higher = larger tumour) 108 % of control; under setting [7], 36 % of control; (endpoint: mean tumor weight, dose: 6.3 mg/kg/injection, schedule: Q01DX010 (ip), vehicle: saline, higher = larger tumour) 44 % of control; (endpoint: mean tumor weight, dose: 10.0 mg/kg/injection, schedule: Q01DX015 (ip), vehicle: carboxymethylcellulose (CMC), higher = larger tumour) 119 % of control; under setting [8], 27 % of control. The T/C reads like this: (endpoint: mean tumor weight, dose: 40.0 mg/kg/injection, schedule: Q01DX001 (ip), vehicle: carboxymethylcellulose (CMC), higher = larger tumour) 71 % of control; (endpoint: mean tumor weight, dose: 80.0 mg/kg/injection, schedule: Q01DX001 (ip), vehicle: carboxymethylcellulose (CMC), higher = larger tumour) 69 % of control; (endpoint: median survival time, dose: 5.0 mg/kg/injection, schedule: Q01DX010 (ip), vehicle: saline, higher = longer survival) 97 % of control and 103 % of control (2×); (endpoint: median survival time, dose: 10.0 mg/kg/injection, schedule: Q01DX010 (ip), vehicle: saline, higher = longer survival) 117 % of control (2×) and 103 % of control; (endpoint: median survival time, dose: 20.0 mg/kg/injection, schedule: Q01DX010 (ip), vehicle: saline, higher = longer survival) 116 % of control and 39 % of control; (endpoint: median survival time, dose: 40.0 mg/kg/injection, schedule: Q01DX010 (ip), vehicle: saline, higher = longer survival) 24 % of control and 28 % of control. Moreover, for the setting “endpoint: median survival time, dose: 80.0 mg/kg/injection, schedule: Q01DX010 (ip), vehicle: saline, higher = longer survival”, the T/C was 26 % of control.

On to `CCCSc1ncnc2nc[nH]c12`, for which the T/C (endpoint: mean tumor weight, dose: 31.0 mg/kg/injection, schedule: Q01DX010 (ip), vehicle: carboxymethylcellulose (CMC), higher = larger tumour) is 84 % of control; the T/C (endpoint: mean tumor weight, dose: 62.0 mg/kg/injection, schedule: Q01DX010 (ip), vehicle: carboxymethylcellulose (CMC), higher = larger tumour) was 70 % of control; the T/C under setting [5] is 51 % of control and 52 % of control.

With `C[C@]12C=CC(=O)C=C1CC[C@@H]1[C@@H]2[C@@H](O)C[C@@]2(C)[C@H]1CC[C@]2(O)C(=O)CO`, the T/C was 22 % of control (endpoint: mean tumor weight, dose: 31.3 mg/kg/injection, schedule: Q01DX010 (sc), vehicle: steriod suspending solution, higher = larger tumour) and 8 % of control under setting [9].

`CN(C)c1ccc(Nc2c3ccccc3nc3ccccc23)cc1`: the T/C by setting is: (endpoint: mean tumor weight, dose: 3.15 mg/kg/injection, schedule: Q01DX010 (ip), vehicle: carboxymethylcellulose (CMC), higher = larger tumour) 84 % of control; (endpoint: mean tumor weight, dose: 6.3 mg/kg/injection, schedule: Q01DX010 (ip), vehicle: carboxymethylcellulose (CMC), higher = larger tumour) 86 % of control; (endpoint: mean tumor weight, dose: 25.0 mg/kg/injection, schedule: Q01DX010 (ip), vehicle: carboxymethylcellulose (CMC), higher = larger tumour) 36 % of control; (endpoint: mean tumor weight, dose: 50.0 mg/kg/injection, schedule: Q01DX010 (ip), vehicle: carboxymethylcellulose (CMC), higher = larger tumour) 10 % of control.

As to `CCN(CC)CCNc1ccc(C)c2sc3ccccc3c(=O)c12`, the T/C is, setting by setting: (endpoint: mean tumor weight, dose: 3.1 mg/kg/injection, schedule: Q01DX010 (ip), vehicle: methylcellulose (MC), higher = larger tumour) 108 % of control; (endpoint: mean tumor weight, dose: 5.0 mg/kg/injection, schedule: Q01DX010 (ip), vehicle: methylcellulose (MC), higher = larger tumour) 99 % of control; (endpoint: mean tumor weight, dose: 10.0 mg/kg/injection, schedule: Q01DX010 (ip), vehicle: methylcellulose (MC), higher = larger tumour) 68 % of control; (endpoint: mean tumor weight, dose: 20.0 mg/kg/injection, schedule: Q01DX010 (ip), vehicle: methylcellulose (MC), higher = larger tumour) 104 % of control.

For the compound `C=CC(CN1CC1)OC(C)=O` (centres undefined), the T/C runs as follows: under setting [2], 71 % of control; (endpoint: mean tumor weight, dose: 6.0 mg/kg/injection, schedule: Q01DX010 (ip), vehicle: saline, higher = larger tumour) 64 % of control; (endpoint: mean tumor weight, dose: 8.0 mg/kg/injection, schedule: Q01DX010 (ip), vehicle: saline, higher = larger tumour) 42 % of control.

Consider `N#[N+]c1cnc([O-])[nH]c1=O`, for which the T/C by setting is: (endpoint: mean tumor weight, dose: 5.0 mg/kg/injection, schedule: Q01DX010 (ip), vehicle: carboxymethylcellulose (CMC), higher = larger tumour) 105 % of control; (endpoint: mean tumor weight, dose: 10.0 mg/kg/injection, schedule: Q01DX010 (ip), vehicle: carboxymethylcellulose (CMC), higher = larger tumour) 47 % of control.

In the case of `CN(N=O)C(N)=O`, the T/C under setting [8] is 10 % of control and the T/C (endpoint: mean tumor weight, dose: 25.0 mg/kg/injection, schedule: Q01DX010 (ip), vehicle: saline, higher = larger tumour) is 13 % of control.

Regarding `Nc1ncnc2[nH]ncc12`, the T/C is 73 % of control (endpoint: mean tumor weight, dose: 6.25 mg/kg/injection, schedule: Q01DX010 (ip), vehicle: carboxymethylcellulose (CMC), higher = larger tumour) and 64 % of control (endpoint: mean tumor weight, dose: 12.5 mg/kg/injection, schedule: Q01DX010 (ip), vehicle: carboxymethylcellulose (CMC), higher = larger tumour).

Regarding `Cn1cnc([N+](=O)[O-])c1Sc1nc(N)nc2nc[nH]c12`, the T/C is, setting by setting: (endpoint: mean tumor weight, dose: 2.5 mg/kg/injection, schedule: Q01DX010 (ip), vehicle: saline, higher = larger tumour) 53 % of control; under setting [7], 62 % of control; (endpoint: mean tumor weight, dose: 10.0 mg/kg/injection, schedule: Q01DX010 (ip), vehicle: saline, higher = larger tumour) 37 % of control.

On to `Clc1ccc(C(c2ccccc2Cl)C(Cl)Cl)cc1` (centres undefined), for which the T/C under setting [9] is 85 % of control; the T/C (endpoint: mean tumor weight, dose: 125.0 mg/kg/injection, schedule: Q01DX010 (sc), vehicle: steriod suspending solution, higher = larger tumour) was 73 % of control; the T/C (endpoint: mean tumor weight, dose: 250.0 mg/kg/injection, schedule: Q01DX010 (sc), vehicle: steriod suspending solution, higher = larger tumour) was 105 % of control; the T/C (endpoint: mean tumor weight, dose: 500.0 mg/kg/injection, schedule: Q01DX010 (sc), vehicle: steriod suspending solution, higher = larger tumour) was 103 % of control.

Take `O=C(Nc1ccc(C2=NCCCN2)cc1)c1ccc(NC(=O)c2ccc(C3=NCCCN3)cc2)cc1`: the T/C reads like this: (endpoint: mean tumor weight, dose: 2.0 mg/kg/injection, schedule: Q01DX010 (ip), vehicle: carboxymethylcellulose (CMC), higher = larger tumour) 73 % of control; (endpoint: mean tumor weight, dose: 4.0 mg/kg/injection, schedule: Q01DX010 (ip), vehicle: carboxymethylcellulose (CMC), higher = larger tumour) 50 % of control; (endpoint: mean tumor weight, dose: 8.0 mg/kg/injection, schedule: Q01DX010 (ip), vehicle: carboxymethylcellulose (CMC), higher = larger tumour) 15 % of control.
